Columns and labels:
Format in all cases: in vivo, C57BL/6J mice
[1] = tested on: NAFLD-induced mice; assay: NAFLD activity score (NAS) in mouse model of NAFLD induced by STZ administration and high-fat diet (Example 3); settings: 10 mg/kg; for Steatosis Score 0 (number of mice): score 0 = <5%; for Hepatocyte Ballooning Score 0 (number of mice): score 0 = None; for Steatosis Score 1 (number of mice): score 1 = 5% to 33%; for Lobular Inflammation Score 1 (number of mice): score 1 = <2 Foci/200×; for Hepatocyte Ballooning Score 1 (number of mice): score 1 = Some balloon cells; for Lobular Inflammation Score 2 (number of mice): score 2 = 2 to 4 Foci/200×; for Lobular Inflammation Score 3 (number of mice): score 3 = >4 Foci/200×
Method: Two-day-old C57BL/6J mice were administered with streptozotocin (STZ, 200 μg). Since the time the mice were 5 weeks old, they were supplied with a high-fat diet (60% fat) so as to induce NAFLD. The mouse model is an experimental animal model that is known to be capable of inducing diseases ranging from diabetes, fatty liver, steatohepatitis, liver fibrosis, to liver cancer within a short period of time of 20 weeks of age. Specifically, since the time the mice were 6 weeks old, they were orally administered with vehicle (0.5% hydroxypropyl methylcellulose+0.1% Tween 80) or Compound 1, which were prepared at various concentrations, at each concentration of 1 mg/kg, 3 mg/kg, and 10 mg/kg for 4 weeks, and the livers were removed by autopsy on the final day of the test. Parts of the removed livers were fixed in a 10% formalin solution for histopathology and tissue slides were prepared therefrom and subjected to H&E staining, whereas other parts of the removed livers were used for qRT-PCR analysis. The steatosis scores and relative mRNA expression levels were calculated in the same manner as in Example 1, and the results are shown in FIGS. 3 and 4, respectively. The calculated results were expressed in mean and standard deviation, and the significance of statistical differences between the groups was confirmed using Student's t-test (*; p<0.05).
As in Example 2, vehicle or Compound 1 at a dose of 10 mg/kg was administered to the animal model in which NAFLD was induced by STZ administration and a high-fat diet. […] Additionally, two comparative groups were prepared by administering each of obeticholic acid (OCA, product name: Ocaliva) and compound A (having the same mechanism of action with Compound 1) at a dose of 10 mg/kg each, instead of vehicle or Compound 1. NAS values were respectively calculated for Normal group, the vehicle group, Compound 1 (10 mg/kg) group, and the two comparative groups (OCA-administered and compound A-administered groups), as shown in Table 2. NAS represents the sum of the scores for respective symptoms, i.e., steatosis, lobular inflammation, and hepatocyte ballooning, and the scoring for each symptom was based on the criteria described in Table 1 below. Each group consisted of 8 mice, and the NAS value is defined as the sum of the mean scores from each symptom. As NAS value is higher, NAFLD is more severe. For example, when NAS value is 3 to 4 points, the mouse can be suspected to have non-alcoholic steatohepatitis (NASH), whereas when NAS value is 5 points or higher, the mouse can be determined to have NASH.

[2] = tested on: mRNA expression levels of Srebp1, TIMP1 and Col1a1 in liver tissues; assay: Liver mRNA expression by qRT-PCR in mouse model of NAFLD induced by high-fat high-cholesterol diet (Example 1); settings: 0.016% in diet, 12 weeks; vs Control group; relative to Normal group; FIG. 2
From the text: (§1) Eight-week-old C57BL/6J mice were supplied with a high-fat high-cholesterol diet (60% fat and 0.5% cholesterol) and drinking water containing 4.2% fructose for 16 weeks so as to induce non-alcoholic fatty liver disease (NAFLD).
(§2) After the supply of a high-fat high-cholesterol diet for 4 weeks, the diet was replaced with another high-fat high-cholesterol diet prepared to contain Compound 1 at a concentration of 0.016% and supplied for an additional 12 weeks, and the livers were removed by autopsy on the final day of the test. Parts of the removed livers were fixed in a 10% formalin solution for histopathology and tissue slides were prepared therefrom and subjected to H&E staining, whereas other parts of the removed livers were used for quantitative real-time PCR (qRT-PCR) analysis.
(§3) Furthermore, the relative expression level of mRNA in Normal group was calculated by qRT-PCR. Specifically, the mRNA expression levels of Srebp1 (i.e., a gene marker associated with lipid synthesis), and TIMP1 and Col1a1 (i.e., gene markers associated with fibrosis), etc. were measured through the SYBR-green RT-PCR analysis of the removed liver tissues described above, and the relative expression levels were calculated based on those of Normal group and are shown in FIG. 2. The calculated data were expressed in mean and standard deviation, and the significance of statistical differences between groups was confirmed using Student's t-test (*; p<0.05).

[3] = tested on: NAFLD-induced mice; assay: Degree of liver fibrosis by Sirius Red staining in STZ and high-fat diet NAFLD mouse model (Example 3); settings: 10 mg/kg; fibrosis area increased by NASH induction; FIG. 6
Method: (§4) Two-day-old C57BL/6J mice were administered with streptozotocin (STZ, 200 μg). Since the time the mice were 5 weeks old, they were supplied with a high-fat diet (60% fat) so as to induce NAFLD. The mouse model is an experimental animal model that is known to be capable of inducing diseases ranging from diabetes, fatty liver, steatohepatitis, liver fibrosis, to liver cancer within a short period of time of 20 weeks of age. […] The steatosis scores and relative mRNA expression levels were calculated in the same manner as in Example 1, and the results are shown in FIGS. 3 and 4, respectively. The calculated results were expressed in mean and standard deviation, and the significance of statistical differences between the groups was confirmed using Student's t-test (*; p<0.05).
As in Example 2, vehicle or Compound 1 at a dose of 10 mg/kg was administered to the animal model in which NAFLD was induced by STZ administration and a high-fat diet. […] NAS values were respectively calculated for Normal group, the vehicle group, Compound 1 (10 mg/kg) group, and the two comparative groups (OCA-administered and compound A-administered groups), as shown in Table 2. […] For example, when NAS value is 3 to 4 points, the mouse can be suspected to have non-alcoholic steatohepatitis (NASH), whereas when NAS value is 5 points or higher, the mouse can be determined to have NASH. […]

[4] = tested on: NAFLD-induced mice; assay: Steatosis score (H&E histology) in mouse model of NAFLD induced by high-fat high-cholesterol diet and fructose drinking water (Example 1); settings: high-fat high-cholesterol diet containing 0.016% of compound for 12 weeks; vs Control group; FIG. 1
From the text: as §1, §2
The normal mice (not induced with NAFLD, denoted by “Normal” in drawings) and the mice induced with NAFLD using a high-fat high-cholesterol diet and fructose-containing drinking water (denoted by “Control” in drawings) were used as the control group. […]

[5] = Blood lipid levels in STZ and high-fat diet NAFLD mouse model (Example 4); settings: 1 mg/kg, 3 mg/kg, and 10 mg/kg; compared to vehicle administered group; FIG. 7
Method: as §4
Blood specimens were secured before autopsy by collecting blood samples from an experimental animal model prepared as in Example 2, in which NAFLD was induced by administering STZ and supplying a high-fat diet, and to which Compound 1 was administered at doses of 1 mg/kg, 3 mg/kg, and 10 mg/kg. The obtained blood samples were centrifuged to separate blood plasma, and the remaining samples were analyzed for blood lipid levels (e.g., levels of total cholesterol, high-density lipoprotein (HDL), and low-density lipoprotein (LDL)) using a biochemical analyzer (Hitachi 7100), and the results are shown in FIG. 7. […]

[6] = tested on: expression levels of the gene (mRNA) associated with lipid synthesis, inflammation, and fibrosis; assay: Liver mRNA expression by qRT-PCR in mouse model of NAFLD induced by STZ administration and high-fat diet (Example 2); settings: oral, 1 mg/kg, 3 mg/kg, and mg/kg for 4 weeks; vs Control group; FIG. 4
Method: as §3
(§5) Two-day-old C57BL/6J mice were administered with streptozotocin (STZ, 200 μg). Since the time the mice were 5 weeks old, they were supplied with a high-fat diet (60% fat) so as to induce NAFLD. […] The steatosis scores and relative mRNA expression levels were calculated in the same manner as in Example 1, and the results are shown in FIGS. 3 and 4, respectively. The calculated results were expressed in mean and standard deviation, and the significance of statistical differences between the groups was confirmed using Student's t-test (*; p<0.05).

[7] = tested on: NAFLD-induced mice; assay: Steatosis score in mouse model of NAFLD induced by STZ administration and high-fat diet (Example 2); settings: oral, FIG. 3
Method: The normal mice (not induced with NAFLD, denoted by “Normal” in drawings) and the mice induced with NAFLD using a high-fat high-cholesterol diet and fructose-containing drinking water (denoted by “Control” in drawings) were used as the control group. Specifically, histological scoring was performed in the same manner as in the clinical pathology scoring as follows: score 0 when the area occupied by fat in the liver tissue is less than 5%, score 1 when the area occupied by fat in the liver tissue is 5% to 33%, score 2 when the area occupied by fat in the liver tissue is 34% to 66%, and score 3 when the area occupied by fat in the liver tissue exceeds 66%.
as §5

SMILES | NAS (NAFLD activity score) ([1]; compared to comparative groups OCA and Compound A at identical dose, FIG. 5) | Steatosis Score 0 (number of mice) ([1]; n=8 mice per group) | Hepatocyte Ballooning Score 0 (number of mice) ([1]; n=8 mice per group) | Steatosis Score 1 (number of mice) ([1]; n=8 mice per group) | Lobular Inflammation Score 1 (number of mice) ([1]; n=8 mice per group) | Hepatocyte Ballooning Score 1 (number of mice) ([1]; n=8 mice per group) | Lobular Inflammation Score 2 (number of mice) ([1]; n=8 mice per group) | Hepatocyte Ballooning Score 2 (number of mice) ([1]; n=8 mice per group, score 2 = Many cells/Prominent ballooning) | Lobular Inflammation Score 3 (number of mice) ([1]; n=8 mice per group) | mRNA level of Col1a1 (liver) [2] | mRNA level of Srebp1 (liver) [2] | mRNA level of TIMP1 (liver) [2] | fibrosis area (Sirius Red positive area) [3] | steatosis score [4] | blood level of HDL [5] | blood level of LDL [5] | expression levels of the gene (mRNA) associated with lipid synthesis, inflammation, and fibrosis [6] | steatosis score ([7]; 1 mg/kg, 3 mg/kg and 10 mg/kg for 4 weeks, vs vehicle Control group) | steatosis score ([7]; dose of 1 mg/kg for 4 weeks, vs vehicle)
CCCCC1(CCCC)CN(c2ccc(F)cc2)c2cc(SC)c(CNCC(=O)O)cc2S(=O)(=O)C1 [Compound 1, 2-(((3,3-dibutyl-5-(4-fluorophenyl)-7-methylthio-1,1-dioxido-2,3,4,5-tetrahydrobenzo[b][1,4]thiazepin-8-yl)methyl)amino)acetic acid] | significantly reduced NAS values | 4 | 6 | 4 | 2 | 1 | 5 | 1 | 1 | remarkable decrease with statistical significance | remarkable decrease with statistical significance | remarkable decrease with statistical significance | significant decrease in the fibrosis area | significant decrease in steatosis score close to that of Normal group | higher level of HDL | lower level of LDL | significant decreases | lower steatosis scores | reduced steatosis score
CC[C@H]1[C@@H](O)[C@@H]2[C@H](CC[C@]3(C)[C@@H]([C@H](C)CCC(=O)O)CC[C@@H]23)[C@@]2(C)CC[C@@H](O)C[C@@H]12 [OCA, obeticholic acid, reference compound] | – | 2 | 4 | 6 | 1 | 4 | 5 | – | 2 | – | – | – | – | – | – | – | – | – | –
